Here are results for 22 compounds from patent US20260365682A1, “MODULATORS OF TNF-ALPHA ACTIVITY” (Forward Therapeutics, Inc., priority 2022, published 2026).

Bounds are passed on as bounds.

One may read the IC50 as the point on the concentration scale where inhibition reaches its midpoint.

The target in this test is T1, TNF-α (Homo sapiens, UniProt P01375).
T1 construct: purchased R&D 210-TA-020/CF
Briefly: TNF-α Induced HEK Blue Cellular Assay (secreted alkaline phosphatase expression, QUANTI-Blue). It counts as cell-based. The conditions noted are these: HEK Blue TNFα reporter cells; TNF-α 100 μg/ml; 24 hrs at 37° C.; inhibition of secreted alkaline phosphatase; read-out: IC50 value. The method, boiled down:
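Compound was serially diluted from […] to 0.5 nM final, then incubated with 10,000 HEK Blue TNFα reporter cells per well and […] TNF-α for 24 h at 37° C. SEAP output was read by QUANTI-Blue absorbance at 620 nm. Inhibition was background-corrected against DMSO controls with and without stimulation, and IC50 was fitted with a 4-parameter logistic equation.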

T1 sequence (P01375 77-233 limits assumed): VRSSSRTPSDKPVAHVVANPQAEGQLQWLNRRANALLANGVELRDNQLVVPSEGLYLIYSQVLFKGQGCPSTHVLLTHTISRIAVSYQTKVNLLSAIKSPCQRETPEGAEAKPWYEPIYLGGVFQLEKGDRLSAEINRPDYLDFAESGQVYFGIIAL

As to `[2H]C([2H])([2H])N1C(=O)c2cccc(OC(F)F)c2[C@H]2C[C@@H]1c1nc3ccc(C#CC4CC4)cc3n12` [Example 85, (7R,14R)-11-(cyclopropylethynyl)-1-(difluoromethoxy)-6-(methyl-d3)-6,7-dihydro-7,14-methanobenzo[f]benzo[4,5]imidazo[1,2-a][1,4]diazocin-5(14H)-one], the IC50 is less than 100 nM. With `[2H]C([2H])([2H])N1C(=O)c2cccc(OC(F)F)c2[C@H]2C[C@@H]1c1nc3ccc(C#CCCC(=O)O)cc3n12` [Example 104, 5-((7R,14R)-1-(difluoromethoxy)-6-(methyl-d3)-5-oxo-5,6,7,14-tetrahydro-7,14-methanobenzo[f]benzo[4,5]imidazo[1,2-a][1,4]diazocin-11-yl)pent-4-ynoic Acid] the figure was 10000 to 30000 nM.

Consider `[2H]C([2H])([2H])N1C(=O)c2cccc(OC(F)F)c2[C@H]2C[C@@H]1c1nc3ccc(C#CCCCN4CCN(C)CC4)cc3n12` [Example 133, (7R,14R)-1-(difluoromethoxy)-6-(methyl-d3)-11-(5-(4-methylpiperazin-1-yl)pent-1-yn-1-yl)-6,7-dihydro-7,14-methanobenzo[f]benzo[4,5]imidazo[1,2-a][1,4]diazocin-5(14H)-one], for which the IC50 was 100 to 1000 nM. The figure for `[2H]C([2H])([2H])N1C(=O)c2cccc(OC(F)F)c2[C@H]2C[C@@H]1c1nc3ccc(C#CC4(C)CN(C)C4)cc3n12` [Example 155, (7R,14R)-1-(difluoromethoxy)-11-((1,3-dimethylazetidin-3-yl)ethynyl)-6-(methyl-d3)-6,7-dihydro-7,14-methanobenzo[f]benzo[4,5]imidazo[1,2-a][1,4]diazocin-5(14H)-one] is less than 100 nM. For `[2H]C([2H])([2H])N1C(=O)c2cccc(OC(F)F)c2[C@H]2C[C@@H]1c1nc3ccc(C#CC4(O)CN(C5COC5)C4)cc3n12` [Example 250, (7R,14R)-1-(difluoromethoxy)-11-((3-hydroxy-1-(oxetan-3-yl)azetidin-3-yl)ethynyl)-6-(methyl-d3)-6,7-dihydro-7,14-methanobenzo[f]benzo[4,5]imidazo[1,2-a][1,4]diazocin-5(14H)-one], the IC50 is less than 100 nM. For `[2H]C([2H])([2H])N1C(=O)c2cccc(OC(F)F)c2[C@H]2C[C@@H]1c1nc3ccc(C#Cc4cccnn4)cc3n12` [Example 33, (7R,14R)-1-(difluoromethoxy)-6-(methyl-d3)-11-(pyridazin-3-ylethynyl)-6,7-dihydro-7,14-methanobenzo[f]benzo[4,5]imidazo[1,2-a][1,4]diazocin-5(14H)-one], the IC50 was in the range of 10000 to 30000 nM. With `[2H]C([2H])([2H])N1C(=O)c2cccc(OC(F)F)c2[C@H]2C[C@@H]1c1nc3ccc(C#CC4CCN(C)CC4)cc3n12` [Example 57, (7R,14R)-1-(difluoromethoxy)-6-(methyl-d3)-11-((1-methylpiperidin-4-yl)ethynyl)-6,7-dihydro-7,14-methanobenzo[f]benzo[4,5]imidazo[1,2-a][1,4]diazocin-5(14H)-one] the figure was 100 to 1000 nM; with `[2H]C([2H])([2H])N1C(=O)c2cccc(OC(F)F)c2[C@H]2C[C@@H]1c1nc3ccc(C#CC(O)C(F)(F)F)cc3n12` (single isomer, unassigned) [Example 200, (7R,14R)-1-(difluoromethoxy)-6-(methyl-d3)-11-((S or R)-4,4,4-trifluoro-3-hydroxybut-1-yn-1-yl)-6,7-dihydro-7,14-methanobenzo[f]benzo[4,5]imidazo[1,2-a][1,4]diazocin-5(14H)-one], 100 to 1000 nM. The figure for `[2H]C([2H])([2H])N1C(=O)c2cccc(OC(F)F)c2[C@H]2C[C@@H]1c1nc3ccc(C#CCN4CC(F)(F)C4)cc3n12` [Example 231, (7R,14R)-11-(3-(3,3-difluoroazetidin-1-yl)prop-1-yn-1-yl)-1-(difluoromethoxy)-6-(methyl-d3)-6,7-dihydro-7,14-methanobenzo[f]benzo[4,5]imidazo[1,2-a][1,4]diazocin-5(14H)-one] is less than 100 nM; for `[2H]C([2H])([2H])N1C(=O)c2cccc(OC(F)F)c2[C@H]2C[C@@H]1c1nc3ccc(C#C[C@@H](C)COC)cc3n12` [Example 147, (7R,14R)-1-(difluoromethoxy)-11-((R)-4-methoxy-3-methylbut-1-yn-1-yl)-6-(methyl-d3)-6,7-dihydro-7,14-methanobenzo[f]benzo[4,5]imidazo[1,2-a][1,4]diazocin-5(14H)-one] it is less than 100 nM. With `[2H]C([2H])([2H])N1C(=O)c2cccc(OC(F)F)c2[C@H]2C[C@@H]1c1nc3ccc(C#CCO)cc3n12` [Example 144, (7R,14R)-1-(difluoromethoxy)-11-(3-hydroxyprop-1-yn-1-yl)-6-(methyl-d3)-6,7-dihydro-7,14-methanobenzo[f]benzo[4,5]imidazo[1,2-a][1,4]diazocin-5(14H)-one] the figure was 100 to 1000 nM; with `[2H]C([2H])([2H])N1C(=O)c2cccc(OC(F)F)c2[C@H]2C[C@@H]1c1nc3ccc(C#CC4CCNC4)cc3n12` (stereo partly drawn) [Example 71, (7R,14R)-1-(difluoromethoxy)-6-(methyl-d3)-11-(pyrrolidin-3-ylethynyl)-6,7-dihydro-7,14-methanobenzo[f]benzo[4,5]imidazo[1,2-a][1,4]diazocin-5(14H)-one], 100 to 1000 nM. With `O=C1N[C@@H]2C[C@H](c3c(OC(F)F)cccc31)n1c2nc2ccc(C#Cc3cnn(CCO)c3)cc21` [Example 6, (1R,11R)-18-(difluoromethoxy)-5-{2-[1-(2-hydroxyethyl)pyrazol-4-yl]ethynyl}-2,9,12-triazapentacyclo[9.8.1.0^{2,10}.0^{3,8}.0^{14,19}]icosa-3(8),4,6,9,14(19),15,17-heptaen-13-one], the concentration for half-maximal inhibition (IC50) is less than 100 nM. As for `[2H]C([2H])([2H])N1C(=O)c2cccc(OC(F)F)c2[C@H]2C[C@@H]1c1nc3ccc(C#CC4(C)CCN(C(C)=O)CC4)cc3n12` [Example 180, (7R,14R)-11-((1-acetyl-4-methylpiperidin-4-yl)ethynyl)-1-(difluoromethoxy)-6-(methyl-d3)-6,7-dihydro-7,14-methanobenzo[f]benzo[4,5]imidazo[1,2-a][1,4]diazocin-5(14H)-one], the IC50 was in the range of 10000 to 30000 nM. With `[2H]C([2H])([2H])N1C(=O)c2cccc(OC(F)F)c2[C@H]2C[C@@H]1c1nc3ccc(C#CCCO)cc3n12` [Example 111, (7R,14R)-1-(difluoromethoxy)-11-(4-hydroxybut-1-yn-1-yl)-6-(methyl-d3)-6,7-dihydro-7,14-methanobenzo[f]benzo[4,5]imidazo[1,2-a][1,4]diazocin-5(14H)-one] the figure was less than 100 nM; with `[2H]C([2H])([2H])N1C(=O)c2cccc(OC(F)F)c2[C@H]2C[C@@H]1c1nc3ccc(C#CCC(O)C(C)O)cc3n12` (single isomer, unassigned) [Example 244, (7R,14R)-1-(difluoromethoxy)-11-((4S or 4S,5R or 5S)-4,5-dihydroxyhex-1-yn-1-yl)-6-(methyl-d3)-6,7-dihydro-7,14-methanobenzo[f]benzo[4,5]imidazo[1,2-a][1,4]diazocin-5(14H)-one], less than 100 nM; with `[2H]C([2H])([2H])N1C(=O)c2cccc(OC(F)F)c2[C@H]2C[C@@H]1c1nc3ccc(C#CC4(C)CN(C(=O)C5CC5)C4)cc3n12` [Example 161, (7R,14R)-11-((1-(cyclopropanecarbonyl)-3-methylazetidin-3-yl)ethynyl)-1-(difluoromethoxy)-6-(methyl-d3)-6,7-dihydro-7,14-methanobenzo[f]benzo[4,5]imidazo[1,2-a][1,4]diazocin-5(14H)-one], less than 100 nM.

As to `[2H]C([2H])([2H])N1C(=O)c2cccc(OC(F)F)c2[C@H]2C[C@@H]1c1nc3ccc(C#CC4CCN(C5COC5)C4)cc3n12` (stereo partly drawn) [Example 237, (7R,14R)-1-(difluoromethoxy)-6-(methyl-d3)-11-((1-(oxetan-3-yl)pyrrolidin-3-yl)ethynyl)-6,7-dihydro-7,14-methanobenzo[f]benzo[4,5]imidazo[1,2-a][1,4]diazocin-5(14H)-one], the IC50 was less than 100 nM. With `[2H]C([2H])([2H])N1C(=O)c2cccc(OC(F)F)c2[C@H]2C[C@@H]1c1nc3ccc(C#Cc4ccc(P(C)(C)=O)s4)cc3n12` [Example 107, (7R,14R)-1-(difluoromethoxy)-11-((5-(dimethylphosphoryl)thiophen-2-yl)ethynyl)-6-(methyl-d3)-6,7-dihydro-7,14-methanobenzo[f]benzo[4,5]imidazo[1,2-a][1,4]diazocin-5(14H)-one], the half-maximal inhibitory concentration (IC50) was less than 100 nM. The figure for `[2H]C([2H])([2H])N1C(=O)c2cccc(OC(F)F)c2[C@H]2C[C@@H]1c1nc3ccc(C#CC4(C)CN(C5CC5)C4)cc3n12` [Example 211, (7R,14R)-11-((1-cyclopropyl-3-methylazetidin-3-yl)ethynyl)-1-(difluoromethoxy)-6-(methyl-d3)-6,7-dihydro-7,14-methanobenzo[f]benzo[4,5]imidazo[1,2-a][1,4]diazocin-5(14H)-one] is less than 100 nM. The figure for `CN1C(=O)c2cccc(OC(F)F)c2[C@H]2C[C@@H]1c1nc3ccc(C#Cc4cncn4C)cc3n12` [Example 9, (1R,11R)-18-(difluoromethoxy)-12-methyl-5-[2-(3-methylimidazol-4-yl)ethynyl]-2,9,12-triazapentacyclo[9.8.1.0^{2,10}.0^{3,8}.0^{14,19}]icosa-3(8),4,6,9,14(19),15,17-heptaen-13-one] is less than 100 nM. Consider `[2H]C([2H])([2H])N1C(=O)c2cccc(OC(F)F)c2[C@H]2C[C@@H]1c1nc3ccc(C#CC(C)(C)N)cc3n12` [Example 64, (7R,14R)-11-(3-amino-3-methylbut-1-yn-1-yl)-1-(difluoromethoxy)-6-(methyl-d3)-6,7-dihydro-7,14-methanobenzo[f]benzo[4,5]imidazo[1,2-a][1,4]diazocin-5(14H)-one], for which the 50% inhibitory concentration (IC50) was 10000 to 30000 nM.
